Here are results for one compound from patent US11903917B2, “MEK-inhibitor for the treatment of viral and bacterial infections” (priority 2017, dated 2024).

Several values for one entry are separate records, joined by “and”; a condition that tells them apart may be missing. Equal entries are not always repeated.

For experiment [1], the system named is A549 cells infected with influenza virus (IV) and S. aureus 6850. The experiment in a line: Example 8: cytopathic effect in A549 cells infected with influenza virus and S. aureus 6850, light microscopy. The format is cell-based, human. As to conditions: 10 μM, until 24 h p.i., super-infection. The method, then:
Influenza virus (IV) infection results in enhanced expression of antiviral cytokines, most importantly type I IFNs that activate critical downstream antiviral responses and may also potentiate subsequent bacterial infections. […] Specifically, A549 cells were pre-treated for 1 h with 10 μM of the specific MEK-inhibitor PD-0184264 or DMSO as solvent control. Afterwards, cells were rinsed with PBS and infected with influenza virus (IV) (MOI as indicated) for 30 min at 37° C., 5% CO2. Subsequently, cells were washed with PBS and infected with S. aureus 6850 (MOI as indicated) in the presence or absence of the inhibitor for 3 h. To avoid bacterial over-growth, an antibiotic wash step with lysostaphin (2 μg/mL) was performed for 20 min at 37° C. to remove not-internalized bacteria. Then, cells were washed once and were further incubated until 24 h p.i. in the presence of the inhibitor or solvent. At the end of the incubation period, the cell monolayer was analyzed via light microscopy.

The next experiment deals with H1N1 pdm09. The experiment in a line: Example 11: lung virus titration assay in infected mice. The format is in vivo, C57BL/6 mice. Conditions: for virus titer in the lung, control set to 100%: 24 h after infection. The method, then: (A) After H1N1 pdm09 infection female C57BL/6 mice were treated with either 2.8, 8.4 or 25 mg/kg PD-0184264 (left side) or with 25, 75 or 150 mg/Kg […] ([…]) the oral route. 24 hrs after infection the animals were killed and lung was taken to prepare a 10% suspension. Virus titer was determined using the standard method. Virus titer of mice treated with the two MEK-inhibitors were compared to virus titer of mice treated with solvent (Control) alone. Virus tier in the lungs of control mice was set to 100% (black bar). Graphpad Prism 7 software was used to illustrate both figures.
For oral application of 25 mg/kg, 2.5 mg of PD-0184264 were dissolved in 50 μl DMSO (Sigma-Aldrich, Germany) and further diluted with 0.15 ml Cremophor EL (Merck-Millipore, Germany) and 0.8 ml PBS (Gibco, Germany). For application of 8.4 mg/kg and 2.8 mg/kg, 0.84 mg or 0.28 mg PD-0184264 were dissolved with 50 μl DMSO (Sigma-Aldrich, Germany) and further diluted with 0.15 ml Cremophor EL/0.8 ml PBS.
Eight week old female C57Bl/6 mice (Charles River Laboratories, Germany) with a body weight of 21.0-24.0 g at administration were used for antiviral studies. The animals were normally fed. Drinking water was available ad libitum.
Drugs were administrated using a single dosing on test day 1 by oral gavage. The application speed was 15 s per dose with an administration volume of 200 μl.
Mice were sacrificed 24 h post infection and lungs were weighed, transferred into a Lysing Matrix D tube (MP Bio) and BSS was applied in an amount of the 10-fold volume of the lung. Organs were shredded using the FastPrep FP 120 (Savant). To remove the cell debris the homogenates were centrifuged for 15 min at 2000 rpm and the supernatant collected. The determination of virus titer in homogenates was performed using the AVICEL® plaque assay as described previously (Haasbach et al. 2011, Mastrosovich et al. 2006).

The test system of experiment [2] is influenza virus strain A/Regensburg/D6/2009 (RB1, H1N1 pdm09). Nature of the experiment: Example 1: virus titer in the lung of infected mice, AVICEL plaque assay. The format is in vivo, C57BL/6 mice. As to the method: 8 weeks old C57BL/6 mice (five per group) were infected with 1.5×10^5 PFU (5×MLD50) of the influenza virus strain A/Regensburg/D6/2009, (RB1, H1N1 pdm09). […] All animals received a volume of 200 μl per os. Mice were sacrificed 24 h post infection and lungs were weighed, transferred into a Lysing Matrix D tube (MP Bio) and BSS (buffered salt solution) in an amount of the 10-fold volume of the lung was applied to the samples. Organs were shredded using the FastPrep FP 120 (Savant). To remove the cell debris the homogenates were centrifuged for 15 min at 2000 rpm and the supernatant collected. The determination of virus titer in homogenates was performed using the AVICEL® plaque assay. Results are presented in FIG. 1 as virus titer (log 10) pfu/ml (left) or % virus titer (right). Virus titer was determined by two investigators independently. Mean values from all titrations were presented.

The subject of the next experiment is S. aureus strain 6850. Nature of the experiment: Bacterial growth under heat stress (42° C., 6 h) after inhibitor treatment. Conditions: 20 μM over night, then 42° C. for 6 h, strain 6850, vs solvent. The class given is cell-based, Staphylococcus aureus. The method, then:
(§1) As the kinase is known to play an important role in bacterial stress resistance, bacterial growth under heat stress was monitored after treatment of the bacteria with the inhibitor PD-0184264. S. aureus strain 6850 and MRSA strain USA300 were treated over night with either solvent or 20 μM of the PD-0184264. The next day subcultures with the same amount of bacteria were prepared (confirmed by OD600 and plating on BHI agar) and further incubated at 42° C. for 6 h. Bacterial titers were then calculated via plating of serial dilutions on BHI agar plates. […] This is both observed for the methicillin-sensitive strain 6850 (black bars) as well as for the MRSA strain USA300 (grey bars). Impaired stress tolerance in the presence of the inhibitor is another indication that PD-0184264 directly targets the kinase PknB, which is an important mediator of stress resistance. In summary, the data provide strong circumstantial evidence, that PD-0184264 elicits its antibacterial action by inhibition of the bacterial kinase PknB.

Another experiment relates to MRSA strain USA300. The experiment is described as above. The class given is cell-based, Staphylococcus aureus. Conditions: 20 μM over night, then 42° C. for 6 h, MRSA USA300, vs solvent. The method, then: as §1
In the next experiment the test system is S. aureus 6850. The experiment in a line: Time-of-addition assay, bacterial titers at 0, 3 and 6 h, then medium exchange. The format is cell-based, Staphylococcus aureus.
In a further experiment the test system is S. aureus. The experiment in a line: Resistance development during 17 days of constant treatment. Conditions: 24 h cycles repeated for 17 days. The format is cell-based, Staphylococcus aureus.
In experiment [3] the test system is MRSA strain S. aureus (USA300). Nature of the experiment: Cell-free culture bacterial growth (OD600).
Procedure: Bacterial growth was monitored for 360 minutes.
MRSA bacteria were incubated with different concentrations of the MEK inhibitor ranging from 0-100 μM and bacterial growth was monitored six hours after cultivation.
Experiment [4] deals with influenza A virus strain RB1 [A/Regensburg/D6/09 (H1N1 pdm09)]. Nature of the experiment: Progeny virus inhibition assay in A549 cells. The format is cell-based.

The EC50 is the midpoint of the concentration-response curve. Read a low EC50 as an effect from little substance. Consider `O=C(O)c1ccc(F)c(F)c1Nc1ccc(I)cc1Cl` [PD-0184264, 2-(2-chloro-4-iodophenylamino)-N-3,4-difluoro benzoic acid], for which the “cytopathic effect (CPE)” value in experiment [1] is “completely abolished”. Also, the “virus titer in the lung, control set to 100%” value is reported as “approx. 70%” in the experiment on H1N1 pdm09 (2.8 mg/kg oral), “approx. 20%” with H1N1 pdm09 (8.4 mg/kg oral) and “approx. 10%” with H1N1 pdm09 (25 mg/kg oral). Besides, the “reduction of the virus titer in the lung” value with H1N1 pdm09 (25 mg/kg, FIG. 18) is “at least 90%”. For the same compound, in the experiment on H1N1 pdm09 (oral), the “fold lower concentration needed to achieve a similar effect as 150 mg/kg CI-1040” value came to 6 fold. The “effect on virus titer in the lung (FIG. 1)” value in [2] (25 mg/kg per os, 8 h interval, 24 h post infection) is given as “same effect as 150 mg/kg CI-1040”. The “efficacy in vivo by oral administration (Example 1)” value in experiment [2] (25 and 75 mg/kg) was “effective”. The “bacterial growth under heat stress (bacterial titers)” value with S. aureus strain 6850 and in the experiment on MRSA strain USA300 was “strongly impaired” each time. Further, the “inhibition of bacterial growth, compared with U0126 and gentamicin (0.5 or 2 μg/ml)” value in the experiment on S. aureus 6850 (S. aureus 6850, 3 h and 6 h post inoculation) is on record as “strongest inhibition of bacterial growth”. Also, the “mode of antibacterial action after medium exchange” value with S. aureus 6850 (cultures further incubated without substances reached turbidity of solvent culture) was “bacteriostatic rather than a bactericidal action”. In addition, the “resistance development in S. aureus” value with S. aureus is recorded as “did not induce resistance”. Moreover, the “bacterial growth (OD600)” value in [3] (50 μM, monitored for 360 minutes, vs solvent DMSO) is given as “almost complete absent”. Besides, the “inhibition of bacterial growth (FIG. 3)” value in experiment [3] (starting at 50 μM, 6 hrs) is listed as “almost complete inhibition of growth”. In addition, in [4], the “reduction of progeny virus” value is recorded as “almost no reduction”. Besides, the “reduction of virus titer” value in experiment [4] was 98.87±0.03% and 91.50±2.08% and 58.97±4.45%. The “fold higher EC50 value compared to the EC50 value of CI-1040” value in experiment [4] (CI-1040 value from Haasbach et al. 2017) stood at 31 fold. In experiment [4] (Influenza A virus, H1N1, RB1 on A549 cells, FIG. 17B), the midpoint of the response, the EC50, lay at 804 nM. Also, in [4] (against RB1 on A549 cells), the “S.I. (selectivity index)” value stood at 1960. Besides, the “fold higher concentration needed to achieve similar reduction of progeny influenza virus as 10 μM CI-1040” value in experiment [4] (in vitro, A549) is listed as roughly 10 fold.
